According to patent publication US11191855B2, “1,7-diaryl-1,6-heptadiene-3,5-dione derivatives, methods for the production and use thereof” (UNIVERSITÄTSKLINIKUM REGENSBURG, priority 2015, dated 2021):
Structures can show the parent of a compound that is named as a salt. Where two headings read alike, the source gives them in different places. Blank lines part the entries; values can stand above or below the molecule they belong to.

How the values were obtained:
S. aureus ATCC 25923 [1] = experiment: Phototoxicity test c.2) (BlueV light source, emission maximum approx. 420 nm, CFU count); assay type: cell-based, Staphylococcus aureus; details: for log reduction at 50 µM / log reduction at 10 µM: Staphylococcus aureus, ATCC25923, light or radiation study, 5 min; for log reduction at 50 µM: read-out: Effectiveness against S. aureus: Reduction in CFU in log10 at concentration of 50 μM; for log reduction at 10 µM: read-out: Effectiveness against S. aureus: Reduction in CFU in log10 at concentration of 10 μM
Description: A sample of the bacterial cell Staphylococcus. aureus (ATCC number: 25923) or Escherichia. coli (ATCC number: 25922) was removed from a cryo-freeze culture and cultured under aerobic conditions at 37° C. and 175 rpm overnight in an orbital shaker (MAXQ4000, Thermo Scientific, Dubuque, Iowa, USA). Growth was carried out in 20 mL Todd-Hewitt broth (Carl Roth, Karlsruhe, Germany) supplemented with 0.3% of yeast extract (AppliChem, Darmstadt, Germany). In a second experiment, the photosensitizers (PS) used were dissolved in Millipore water and adjusted to various concentrations. 25 μL of a bacterial suspension grown overnight ( 108/mL) was incubated with 25 μL of photosensitizer solution of the various concentrations at room temperature for 10 seconds in darkness in a 96-well plate. Next, the suspension was irradiated for 5-20 minutes. For the irradiation, the light source BlueV from […], Germany) was used, which emits light from 380 to 480 nm (emission maximum at approximately 420 nm). The applied energy density was 17.5 mW/cm^2. Each experiment was accompanied by three controls in order to exclude side effect of the irradiation/photosensitizer (PS) on the survival of the bacteria: (i) no PS, only light (=light control), (ii) no light, only PS (=dark control) and (iii) neither light nor PS (=reference control). […] All of the tests were carried out four times. […] All of the remaining PS were tested against S. aureus ATCC 25923 (FIGS. 24-33). FIGS. 21-33 show the logarithmic reduction after illumination with respect to the reference control. […] The irradiation period was 5 minutes (emission maximum at approximately 420 nm) for an applied intensity of 17.5 mW/cm^2, i.e. an applied light energy (dosage) of 5.3 J/cm^2. The average reference control (arithmetic mean with standard deviation) (no light, no PS) was 3.9×10^8/mL. The logarithmic reduction after illumination is shown with respect to the reference control.

E. coli ATCC 25922 [2] = experiment: Comparative Example 3: phototoxicity by methods c.1) and c.2); assay type: cell-based, Escherichia coli; details: either of the methods c.1) and c.2)
Description: (§1) A 2-hour culture was divided into 1800 μL aliquots. After centrifuging at 20° C., 830 rcf, 5 min (5417R centrifuge, Eppendorf, Hamburg, Germany), the pellets were re-suspended in phosphate buffer (Dulbeccos' Modified Phosphate Saline, DPBS, Sigma-Aldrich) with either 10 or 50 μM of the corresponding photosensitizer, wherein the final volume was kept at 1800 μL.
(§2) The irradiation was carried out under constant shaking (MTS4, IKA, Staufen, Germany, 175 rpm) from below on a LED array with maximum homogeneity of the lighting surface. All of the controls were shaken in the same manner. The technical data for the light source are shown in Table 2; the total dose of light applied was 33.8 J/cm^2.
(§3) The determination of the colony forming units (CFU) was carried out in accordance with the method published by Miles and Misra (Miles, A A; Misra, S S, Irwin, J O (1938 Nov.). “The estimation of the bactericidal power of the blood” The Journal of hygiene 38 (6): 732-49). In this regard, serial dilutions (1:10) of the corresponding bacterial suspension were produced in DPBS. 5×10 μL of each bacterial dilution was then dripped onto Todd-Hewitt plates (with broth, additional 1.5% agar (Agar-Agar, Kobe I, Roth, Karlsruhe, Germany) and incubated at 37° C. for 24 h. Next, the number of surviving colony forming units was determined. All of the tests were carried out four times. […]

S. aureus ATCC 25923 [3] = experiment: as above; assay type: cell-based, Staphylococcus aureus; details: either of the methods c.1) and c.2)
Description: as §1, §2, §3

[4] = Comparative Example 3: stability and molar extinction coefficient in aqueous solution; assay type: physicochemical; details: comparable with natural curcumin
Description: In a further test, the stability and phototoxicity of the following compounds were tested.
Incubation with the compound (71) (SACUR-01d) and the bacterial strains S. aureus ATCC 25923 and E. coli ATCC 25922 employed as well as irradiation with electromagnetic radiation and determination of the phototoxicity were carried out as described in sections c.1) and c.2) above. […] The free OH groups contribute greatly to this photo-instability because due to them, the compound can readily transform into the quinoid mesomer, and thus cleavage of one half of the molecule with the formation of ferulic acids or substituted vanillins is facilitated.
Aqueous solution A: distilled water.
Aqueous solution B: isotonic sodium chloride solution (0.9% by weight NaCl).
Aqueous solution C: PBS buffer, pH 7.4 (composition: see Sambrook, J.; Maniatis, T.; Russel, D. W.: Molecular cloning: a laboratory manual. Cold Spring Harbor Laboratory Press; 3rd edition (2001)).

E. coli ATCC 25922 [5] = experiment: Phototoxicity test c.2) (BlueV light source, emission maximum approx. 420 nm, CFU count); assay type: cell-based, Escherichia coli; details: light dose 15.7 J/cm^2, approx. 420 nm, 15 min at 17.5 mW/cm^2, vs reference control
Description: A sample of the bacterial cell Staphylococcus. aureus (ATCC number: 25923) or Escherichia. coli (ATCC number: 25922) was removed from a cryo-freeze culture and cultured under aerobic conditions at 37° C. and 175 rpm overnight in an orbital shaker (MAXQ4000, Thermo Scientific, Dubuque, Iowa, USA). Growth was carried out in 20 mL Todd-Hewitt broth (Carl Roth, Karlsruhe, Germany) supplemented with 0.3% of yeast extract (AppliChem, Darmstadt, Germany).
In a second experiment, the photosensitizers (PS) used were dissolved in Millipore water and adjusted to various concentrations. 25 μL of a bacterial suspension grown overnight (˜108/mL) was incubated with 25 μL of photosensitizer solution of the various concentrations at room temperature for 10 seconds in darkness in a 96-well plate.
Next, the suspension was irradiated for 5-20 minutes. For the irradiation, the light source BlueV from Waldmann (Villingen-Schwenningen, Germany) was used, which emits light from 380 to 480 nm (emission maximum at approximately 420 nm). The applied energy density was 17.5 mW/cm^2.
Each experiment was accompanied by three controls in order to exclude side effect of the irradiation/photosensitizer (PS) on the survival of the bacteria: (i) no PS, only light (=light control), (ii) no light, only PS (=dark control) and (iii) neither light nor PS (=reference control). The determination of the colony forming units (CFU) per mL was also carried out in accordance with the method published by Miles, Misra and Irwin described above in section c.1). All of the tests were carried out four times.
The photosensitizers (PS) SACUR-01a, SACUR-03 and SACUR-07 were tested against the bacterial strains S. aureus ATCC 25923 and E. coli ATCC 25922 (FIGS. 21-23). All of the remaining PS were tested against S. aureus ATCC 25923 (FIGS. 24-33). FIGS. 21-33 show the logarithmic reduction after illumination with respect to the reference control.
The average reference control (arithmetic mean with standard deviation) (no light, no PS) was 3.6×10^8/mL for E. coli. The logarithmic reduction after illumination is shown with respect to the reference control.

[6] = natural curcumin, background statement; cited from earlier work
[7] = 10 μM, irradiation 5 minutes, approx. 420 nm, 17.5 mW/cm^2, 5.3 J/cm^2, vs reference control
[8] = 50 μM, irradiation 5 minutes, approx. 420 nm, 17.5 mW/cm^2, 5.3 J/cm^2, vs reference control
[9] = irradiation 5 minutes, approx. 420 nm, 17.5 mW/cm^2, 5.3 J/cm^2, vs reference control

Molecule: (1E,6E)1,7- bis(4-(2- aminoethoxy)-3- methoxy- phenyl)hepta-1,6- diene-3,5-dione hydrochloride BF2 complex [Curcumin 01a BF-complex]
Effectiveness against S. aureus: Reduction in CFU in log10 at concentration of 10 μM (S. aureus ATCC 25923 [1]; [7]): >5 log10
Effectiveness against S. aureus: Reduction in CFU in log10 at concentration of 50 μM (S. aureus ATCC 25923 [1]; [8]): >5 log10

Molecule: CN(C)c1ccc(/C=C/C2=CC(=C/C=C3C=CC(=[N+](C)C)C=C3)/O[B-](F)(F)O2)cc1 [CRANAD-2, reference compound]
Inactivation of E. coli ATCC 25922 upon illumination in the presence of the compound (E. coli ATCC 25922 [2]): could not be ascertained
Inactivation of S. aureus ATCC 25923 upon illumination in the presence of the compound (S. aureus ATCC 25923 [3]): could not be ascertained

Molecule: Cl.Cl.NCCOc1ccc2cc(/C=C/C(=O)CC(=O)/C=C/c3ccc4cc(OCCN)ccc4c3)ccc2c1 [Curcumin 12b hydrochloride]
Effectiveness against S. aureus: Reduction in CFU in log10 at concentration of 100 μM (S. aureus ATCC 25923 [1]; [9]): ~2 log10
Effectiveness against S. aureus: Reduction in CFU in log10 at concentration of 250 μM (S. aureus ATCC 25923 [1]; [9]): >3 log10
log reduction at 50 µM (S. aureus ATCC 25923 [1]; [8]): > 1

Molecule: COc1cc(/C=C/C(=O)CC(=O)/C=C/c2ccc(OCCC[P+](c3ccccc3)(c3ccccc3)c3ccccc3)c(OC)c2)ccc1OCCC[P+](c1ccccc1)(c1ccccc1)c1ccccc1 [Curcumin 15b hydrochloride, 3,3′-(4,4′-((1E,6E)-3,5-dioxohepta-1,6-diene-1,7-diyl)bis(2-methoxy-4,1-phenylene))bis(oxy)bis(triphenylpropan-1-phosphonium) chloride]
log reduction at 10 µM (S. aureus ATCC 25923 [1]): > 4
log reduction at 50 µM (S. aureus ATCC 25923 [1]): > 5

Molecule: COc1cc(/C=C/C(=O)C(C)C(=O)/C=C/c2ccc(OCCN)c(OCCN)c2)ccc1OCCN (stereo not shown) [Curcumin 13c hydrochloride]
log reduction at 10 µM (S. aureus ATCC 25923 [1]; [7]): > 1
log reduction at 50 µM (S. aureus ATCC 25923 [1]; [8]): > 5

Molecule: COc1cc(/C=C(\C)C(=O)CC(=O)/C(C)=C/c2ccc(OCCN)c(OC)c2)ccc1OCCN.Cl.Cl [Curcumin 14a hydrochloride]
Effectiveness against S. aureus: Reduction in CFU in log10 at concentration of 100 μM (S. aureus ATCC 25923 [1]; [9]): >2 log10
Effectiveness against S. aureus: Reduction in CFU in log10 at concentration of 250 μM (S. aureus ATCC 25923 [1]; [9]): >3 log10
log reduction at 50 µM (S. aureus ATCC 25923 [1]; [8]): > 1

Molecule: COc1ccc(/C=C/C(=O)C(CCN)C(=O)/C=C/c2ccc(OC)c(OC)c2)cc1OC.Cl [Curcumin 11a hydrochloride]
Effectiveness against S. aureus: Reduction in CFU in log10 at concentration of 100 μM (S. aureus ATCC 25923 [1]; [9]): >2 log10
Effectiveness against S. aureus: Reduction in CFU in log10 at concentration of 250 μM (S. aureus ATCC 25923 [1]; [9]): >5 log10
log reduction at 50 µM (S. aureus ATCC 25923 [1]; [8]): > 1

Molecule: COc1cc(/C=C/C(=O)C(C)C(=O)/C=C/c2ccc(OCCN)c(OC)c2)ccc1OCCN [Curcumin 09a hydrochloride]
log reduction at 10 µM (S. aureus ATCC 25923 [1]; [7]): > 2
log reduction at 50 µM (S. aureus ATCC 25923 [1]; [8]): > 5

Molecule: COc1ccc(/C=C/C(=O)C(CCN)C(=O)/C=C/c2ccc(OC)c(OCCN)c2)cc1OCCN [Curcumin 13a hydrochloride]
log reduction at 10 µM (S. aureus ATCC 25923 [1]; [7]): > 1
log reduction at 50 µM (S. aureus ATCC 25923 [1]; [8]): > 5

Molecule: COc1cc(/C=C/C(=O)CC(=O)/C=C/c2ccc(OCCC[P+](C)(C)C)c(OC)c2)ccc1OCCC[P+](C)(C)C [Curcumin 15a hydrochloride, 3,3′-(4,4′-((1E,6E)-3,5-dioxohepta-1,6-diene-1,7-diyl)bis(2-methoxy-4,1-phenylene))bis(oxy)bis(trimethylpropan-1-phosphonium) chloride]
log reduction at 10 µM (S. aureus ATCC 25923 [1]; [7]): ~1
log reduction at 50 µM (S. aureus ATCC 25923 [1]; [8]): > 5

Stability in aqueous solution [4]: low stability
Molecule: Cl.Cl.NCCOc1ccc(/C=C/C(=O)CC(=O)/C=C/c2ccc(OCCN)c(O)c2)cc1O [Curcumin 01d hydrochloride]
Inactivation of E. coli ATCC 25922 upon illumination in the presence of the compound (E. coli ATCC 25922 [2]): Hardly any inactivation
Inactivation of S. aureus ATCC 25923 upon illumination in the presence of the compound (S. aureus ATCC 25923 [3]): Hardly any inactivation

Molecule: CCCCCCCCOc1ccc(/C=C/C(=O)CC(=O)/C=C/c2ccc(OCCCCCCCC)c(OCCN)c2)cc1OCCN.Cl [Curcumin 07 hydrochloride]
Effectiveness against E. Coli: Reduction in CFU in log10 at concentration of 10 μM (E. coli ATCC 25922 [5]; 10 μM): >1 log10
Effectiveness against E. Coli: Reduction in CFU in log10 at concentration of 50 μM (E. coli ATCC 25922 [5]; 50 μM): >4 log10
log reduction at 10 µM (S. aureus ATCC 25923 [1]; [7]): > 2
log reduction at 50 µM (S. aureus ATCC 25923 [1]; [8]): > 5

Molecule: COc1cc(C=CC(=O)CC(=O)C=Cc2ccc(O)c(OC)c2)ccc1O [curcumin, 1,7-bis-(4-hydroxy-3-methoxyphenyl)-1,6-heptadiene-3,5-dione]
Solubility in water [6]: low solubility in water
